# Where a name gives a salt, the structure may show the parent alone.
# Test: Degradation (hydrolysis) of Compound I after wet granulation with water
# Type: physicochemical
# Settings: granulation liquid deionized water; LOD value less than or equal to about 1% for the dried granulate
# Procedure: Once blended, a granulation liquid, deionized water, is added for wet kneading. The impeller and chopper speeds are increased to setting 2 (e.g., 306 rpm and 500 rpm, respectively, for the impeller and chopper). The kneading is conducted at room temperature. After granulation, the moist granulates are dried in a fluid-bed dryer with an air inlet temperature of approximately 70° C. to obtain granulates. The moist granulates are dried such that there is a LOD value below 1.0%. The granulates are subsequently sieved using a screen with a mesh size of 1.25 mm or 0.8 mm. As mentioned above, Compound I is a salt of an ester which is potentially sensitive to hydrolysis in the presence of water.
structure (smiles),measurement,value
"CC(C)[C@H](N)C(=O)O[C@@H]1[C@@H](CO)O[C@@H](n2ccc(N)nc2=O)[C@]1(C)O [Compound I, dihydrochloride salt]","degradation, e.g., due to hydrolysis, after wet granulation",does not result in an increase in degradation
